# Measurements from ChEMBL document CHEMBL1146175, “Natural inhibitors targeting osteoclast-mediated bone resorption” (Bioorg Med Chem Lett, 2006).
# pIC50: −log10 of the molar value.
# Target: Integrin alpha-V/beta-3 (Homo sapiens, UniProt P05106+P06756)
# Test: Inhibition of human alpha-v-beta-3 integrin receptor by ELISA
# Assay type: protein-complex assay
# Integrin alpha-V/beta-3, sequence (P05106 27-788 limits assumed): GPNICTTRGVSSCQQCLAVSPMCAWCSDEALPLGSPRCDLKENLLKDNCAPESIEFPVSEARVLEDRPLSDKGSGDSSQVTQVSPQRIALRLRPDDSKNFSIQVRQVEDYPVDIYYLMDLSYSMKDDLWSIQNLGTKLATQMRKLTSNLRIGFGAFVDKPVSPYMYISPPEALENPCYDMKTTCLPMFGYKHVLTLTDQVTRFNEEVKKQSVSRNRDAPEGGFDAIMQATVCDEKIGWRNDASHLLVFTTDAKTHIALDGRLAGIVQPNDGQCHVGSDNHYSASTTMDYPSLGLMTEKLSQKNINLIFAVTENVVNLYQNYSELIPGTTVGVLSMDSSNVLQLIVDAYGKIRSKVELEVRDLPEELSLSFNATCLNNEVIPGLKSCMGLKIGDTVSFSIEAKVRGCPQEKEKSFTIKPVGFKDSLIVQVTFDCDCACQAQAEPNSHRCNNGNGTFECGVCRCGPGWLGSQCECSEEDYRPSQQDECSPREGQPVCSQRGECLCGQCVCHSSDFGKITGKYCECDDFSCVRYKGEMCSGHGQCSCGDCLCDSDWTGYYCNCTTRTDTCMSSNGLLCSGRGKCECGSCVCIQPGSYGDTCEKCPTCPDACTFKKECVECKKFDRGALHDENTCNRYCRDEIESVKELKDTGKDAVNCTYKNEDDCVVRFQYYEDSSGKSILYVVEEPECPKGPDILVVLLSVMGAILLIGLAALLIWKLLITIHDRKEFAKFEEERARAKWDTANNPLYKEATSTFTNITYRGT
# Integrin alpha-V/beta-3, sequence (P06756 31-889 limits assumed): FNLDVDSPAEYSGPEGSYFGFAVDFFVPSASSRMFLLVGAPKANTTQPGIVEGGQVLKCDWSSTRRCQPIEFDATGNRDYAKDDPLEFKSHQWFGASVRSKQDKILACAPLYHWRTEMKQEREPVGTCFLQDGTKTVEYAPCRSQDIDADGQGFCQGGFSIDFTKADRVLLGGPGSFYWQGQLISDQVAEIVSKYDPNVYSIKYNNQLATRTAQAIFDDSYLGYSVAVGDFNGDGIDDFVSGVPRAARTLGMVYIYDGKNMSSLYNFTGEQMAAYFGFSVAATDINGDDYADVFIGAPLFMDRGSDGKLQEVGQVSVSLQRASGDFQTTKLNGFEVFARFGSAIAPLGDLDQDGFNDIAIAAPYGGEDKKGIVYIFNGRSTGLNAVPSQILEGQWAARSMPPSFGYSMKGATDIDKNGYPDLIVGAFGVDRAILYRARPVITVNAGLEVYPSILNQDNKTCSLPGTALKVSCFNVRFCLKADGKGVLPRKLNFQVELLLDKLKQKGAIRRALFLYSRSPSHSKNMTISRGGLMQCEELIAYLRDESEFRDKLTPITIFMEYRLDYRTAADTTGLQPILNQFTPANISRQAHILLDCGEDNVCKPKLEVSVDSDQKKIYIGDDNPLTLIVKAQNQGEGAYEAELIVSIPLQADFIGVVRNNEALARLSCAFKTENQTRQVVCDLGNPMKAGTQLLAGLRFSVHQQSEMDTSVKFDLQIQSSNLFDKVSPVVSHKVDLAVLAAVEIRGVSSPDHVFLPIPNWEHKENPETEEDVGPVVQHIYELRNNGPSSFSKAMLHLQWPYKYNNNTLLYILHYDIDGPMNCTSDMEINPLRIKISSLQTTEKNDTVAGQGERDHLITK
# Integrin alpha-V/beta-3, sequence (P06756 891-1048 limits assumed): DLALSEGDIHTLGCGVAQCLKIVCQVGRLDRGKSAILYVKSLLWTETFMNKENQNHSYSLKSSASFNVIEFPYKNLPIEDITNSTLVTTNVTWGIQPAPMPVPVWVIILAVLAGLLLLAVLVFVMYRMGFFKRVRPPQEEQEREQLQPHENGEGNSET
row,Compound,pIC50
1,O=C(O)/C=C/c1ccccc1O[C@@H]1O[C@H](CO)[C@@H](O)[C@H](O)[C@H]1O [MELILOTOSIDE],4.74

# Target: Matrix metalloproteinase-9 (Homo sapiens, UniProt P14780)
# Sequence (P14780 whole entry): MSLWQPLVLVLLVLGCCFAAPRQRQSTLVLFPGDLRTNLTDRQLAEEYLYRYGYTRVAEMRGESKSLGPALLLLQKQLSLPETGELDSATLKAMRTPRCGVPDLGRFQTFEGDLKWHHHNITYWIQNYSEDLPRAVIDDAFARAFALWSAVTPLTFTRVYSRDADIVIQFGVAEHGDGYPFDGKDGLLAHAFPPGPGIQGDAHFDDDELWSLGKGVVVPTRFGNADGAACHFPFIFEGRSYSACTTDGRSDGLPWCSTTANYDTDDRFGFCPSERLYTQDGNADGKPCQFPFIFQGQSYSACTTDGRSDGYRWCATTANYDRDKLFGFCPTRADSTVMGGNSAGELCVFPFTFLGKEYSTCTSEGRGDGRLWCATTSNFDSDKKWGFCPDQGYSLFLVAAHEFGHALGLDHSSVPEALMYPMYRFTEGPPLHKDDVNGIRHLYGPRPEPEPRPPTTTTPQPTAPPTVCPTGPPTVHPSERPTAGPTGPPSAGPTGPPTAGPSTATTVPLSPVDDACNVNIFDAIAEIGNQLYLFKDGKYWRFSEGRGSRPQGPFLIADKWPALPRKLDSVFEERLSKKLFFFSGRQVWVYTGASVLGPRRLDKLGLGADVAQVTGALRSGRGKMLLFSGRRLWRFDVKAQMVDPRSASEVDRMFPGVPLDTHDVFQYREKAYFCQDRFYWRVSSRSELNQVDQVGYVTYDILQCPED
# Test: Inhibition of human MMP9 by quenched fluorescense assay
row,Compound,pIC50
1,O=C(NO)[C@@H](Cc1ccccc1)NS(=O)(=O)c1ccc(-c2ccccc2)cc1,8.15
2,C[C@@H]1C[C@@H](O)[C@@]2(O)[C@@]13C[C@@H](OC(=O)[C@@H]3O)[C@](C)(O)[C@@]21COC1=O [ANIASATIN],4.75
3,O=c1c2ccccc2nc2n1CCc1c-2[nH]c2ccccc12 [RUTAECARPINE],4.56

# Target: T1, Cathepsin K (Homo sapiens, UniProt P43235)
# T1 sequence (P43235 whole entry): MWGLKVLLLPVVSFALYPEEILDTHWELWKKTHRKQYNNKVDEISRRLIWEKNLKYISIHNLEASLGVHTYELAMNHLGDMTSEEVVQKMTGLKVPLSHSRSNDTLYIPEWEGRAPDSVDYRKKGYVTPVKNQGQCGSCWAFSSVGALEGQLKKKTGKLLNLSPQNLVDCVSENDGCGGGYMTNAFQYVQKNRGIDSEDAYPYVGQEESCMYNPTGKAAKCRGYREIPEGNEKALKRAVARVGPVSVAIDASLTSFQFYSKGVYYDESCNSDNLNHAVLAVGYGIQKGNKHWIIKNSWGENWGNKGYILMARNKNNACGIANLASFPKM
# Test: Inhibition of human Cathepsin K
row,Compound,pIC50
1,O=C1C[C@@H](c2ccc(O)c(-c3c(O)cc(O)c4c(=O)cc(-c5ccc(O)cc5)oc34)c2)Oc2cc(O)cc(O)c21,5.85
2,COc1cc2c([nH]c3c4c(c(C)cc32)OC(C)(C)C=C4)c(-c2c(O)c(OC)cc3c2[nH]c2c4c(c(C)cc23)OC(C)(C)C=C4)c1O,5.72
3,"COc1ccc(-c2cc(=O)c3c(O)cc(OC)c(-c4cc(-c5cc(=O)c6c(O)cc(O)cc6o5)ccc4O)c3o2)cc1 [7'',4'''-dimethylamentoflavone]",5.80
4,O=c1cc(-c2ccc(O)c(-c3c(O)cc(O)c4c(=O)cc(-c5ccc(O)cc5)oc34)c2)oc2cc(O)cc(O)c12 [AMENTOFLAVONE],5.73
5,COc1ccc(-c2cc(=O)c3c(O)cc(O)cc3o2)cc1-c1c(O)cc(O)c2c(=O)cc(-c3ccc(O)cc3)oc12 [BILOBETIN],5.82
6,O=c1cc(-c2ccc(Oc3c(O)cc4oc(-c5ccc(O)cc5)cc(=O)c4c3O)cc2)oc2cc(O)cc(O)c12 [HINOKIFLAVONE],5.81
7,CC(=O)N[C@@H](CC(C)C)C(=O)N[C@@H](CC(C)C)C(=O)N[C@H](C=O)CCCNC(=N)N [LEUPEPTIN],7.37
8,COc1ccc(-c2cc(=O)c3c(O)cc(O)c(-c4cc(-c5cc(=O)c6c(O)cc(O)cc6o5)ccc4O)c3o2)cc1 [PODOCARPUSFLAVONE A],5.60
